Assay results taken from patent publication US20240190862A1 (AMGEN INC., priority 2019, published 2024).
Where two headings read alike, the source gives them in different places.

Key:
[1] = tested on: Phosphorylation of ERK1/2 in MIA PaCa-2 (G12C) cells; assay: Phospho-ERK1/2 MSD Assay; format: cell-based; conditions: Homo sapiens; 2 h compound treatment, MIA PaCa-2 cells; read-out: basal p-ERK 2 h MIA PaCa-2 (G12C) IC50 IP
Description: Phospho-ERK1/2 MSD Assay: MIA PaCa-2 (ATCC® CRL-1420™) cells were cultured in RPMI 1640 Medium (ThermoFisher Scientific 11875093) containing 1% fetal bovine serum (ThermoFisher Scientific 16000044) and 1× penicillin-streptomycin-glutamine (ThermoFisher Scientific 10378016). Sixteen hours prior to compound treatment, MIA PaCa-2 cells were seeded in 96-well cell culture plates at a density of 25,000 cells/well and incubated at 37° C., 5% C02. A compound dose-response titration was diluted in growth media, added to appropriate wells of a cell culture plate, and then incubated at 37° C., 5% C02 for 2 or 4 hours (see Table 15). Following compound treatment, cells were washed with ice-cold Dulbecco's phosphate-buffered saline, no Ca^2+or Mg^2+(ThermoFisher Scientific 14190144), and then lysed in RIPA buffer (50 mM Tris-HCl pH 7.5, 1% Igepal, 0.5% sodium deoxycholate, 150 mM NaCl, and 0.5% sodium dodecyl sulfate) containing protease inhibitors (Roche 4693132001) and phosphatase inhibitors (Roche 4906837001). Phosphorylation of ERK1/2 in compound-treated lysates was assayed using Phospho-ERK1/2 Whole Cell Lysate kits (Meso Scale Discovery K151DWD) according to the manufacturer's protocol. Assay plates were read on a Meso Scale Discovery Sector Imager 6000, and data were analyzed using a 4-parameter logistic model to calculate IC50 values.

[2] = biological target: GDP-bound KRAS protein (aa 1-169) G12D/C118A (Homo sapiens (Human), UniProt P01116, C118A/G12D); assay: Coupled Nucleotide Exchange Assay (KRAS G12D); format: biochemical; conditions: 20 h compound pre-incubation; read-out: GDP KRAS G12D 20 h Coupled Exchange IC50 IP
Sequence of GDP-bound KRAS protein (aa 1-169) G12D/C118A (P01116 other isoform, or with tags, fused parts or gaps G12D/C118A): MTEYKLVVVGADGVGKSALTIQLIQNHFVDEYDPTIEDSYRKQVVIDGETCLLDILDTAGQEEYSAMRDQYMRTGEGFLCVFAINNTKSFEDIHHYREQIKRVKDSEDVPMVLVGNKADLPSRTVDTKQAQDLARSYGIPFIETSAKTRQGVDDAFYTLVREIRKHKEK
Description: (§1) Coupled Nucleotide Exchange Assay: Purified GDP-bound KRAS protein (aa 1-169), containing either G12C or G12D, as well as C118A amino acid substitutions and an N-terminal His-tag, was pre-incubated in assay buffer (25 mM HEPES pH 7.4, 10 mM MgCl2, and 0.01% Triton X-100) with a compound dose-response titration for either 5 min or 20 hours (see Table 15). Following compound pre-incubation, purified SOS protein (aa 564-1049) and GTP (Roche 10106399001) were added to the assay wells and incubated for an additional 30 min. To determine the extent of inhibition of SOS-mediated nucleotide exchange, purified GST-tagged cRAF (aa 1-149), nickel chelate AlphaLISA acceptor beads (PerkinElmer AL108R), and AlphaScreen glutathione donor beads (PerkinElmer 6765302) were added to the assay wells and incubated for 10 minutes. The assay plates were then read on a PerkinElmer EnVision Multilabel Reader, using AlphaScreen® technology, and data were analyzed using a 4-parameter logistic model to calculate IC50 values.

[3] = biological target: GDP-bound KRAS protein (aa 1-169) G12C/C118A (Homo sapiens (Human), UniProt P01116, C118A/G12C); assay: Coupled Nucleotide Exchange Assay (KRAS G12C); format: biochemical
Sequence of GDP-bound KRAS protein (aa 1-169) G12C/C118A (P01116 other isoform, or with tags, fused parts or gaps G12C/C118A): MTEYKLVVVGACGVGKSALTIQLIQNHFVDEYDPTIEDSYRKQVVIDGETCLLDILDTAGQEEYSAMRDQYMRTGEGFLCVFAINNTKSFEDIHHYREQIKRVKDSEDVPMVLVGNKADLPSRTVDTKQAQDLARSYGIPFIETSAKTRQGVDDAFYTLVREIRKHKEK
Description: as §1

GDP-KRAS G12D = GDP-KRAS G12D (Homo sapiens, UniProt P01116, C118A/G12D); assay: GDP-KRAS G12D RF-MS Assay; format: binding; conditions: 100 μM inhibitor, 20 h incubation, 2 uM KRAS G12D
Description: GDP-KRAS G12D RF-MS Assay: MS assays were performed in the following buffer: 25 mM HEPES pH 7.4, 20 mM MgCl2, 10 mM NaCl, 3% DMSO, 0.0005% CHAPS with 100 μM GDP made fresh and added to the assay buffer. The final concentration of KRAS G12D was 2 uM. Assay incubation times were 20 h and the inhibitor concentration was 100 μM. Greiner polypropylene clear V-bottom plates were used for the mass spectrometry assays. Typically, the reaction was initiated by addition of KRAS G12D to a well containing inhibitor followed by Rapidfire MS analysis. Relative % Bound values at the various incubation times were used to estimate a kobs value at 100 uM inhibitor.
RapidFire Sample Liquid handling System: The RapidFire liquid handling unit used was the RF 360 model. Solvents were delivered by Agilent 1260 Infinity pumps. The instrument control software was the Agilent RapidFire High Throughput MS-system software (v4.0.12333.14274). A single C4 Type A (Agilent technologies, G9203) SPE-cartridge was used for these experiments. A volume of 10 μL (sample loop determined) was removed from each well of a 384-well plate by using an aspiration time of 300 ms. The sample load/wash time was 6000 ms at a flow rate of 1.25 mL/min (H2O, 0.1% v/v formic acid, 0.05% v/v trifluoroacetic acid); elution time was 7000 ms (acetonitrile, 0.1% v/v formic acid, 0.05% v/v trifluoroacetic acid); re-equilibration time was 700 ms at a flow rate of 1.25 mL/min (H2O, 0.1% v/v formic acid, 0.05% v/v trifluoroacetic acid).
Mass Spectrometry: Mass spectrometric data was acquired on an Agilent 6530 quadrupole time-of-flight (ToF) MS system, operated with a dual Agilent Jet Spray (AJS) ion source, in positive ionization mode. The instrument parameters were as follows: gas temperature 350° C.; drying gas 5 L/min; nebulizer 60 psi; sheath gas 350° C.; sheath gas flow 11 L/min; capillary 3.5 kV (0.037 μA); nozzle 1.75 kV; fragmentor 200 V; skimmer 75 V; octapole RF 800 V peak-to-peak. Data was acquired at the rate of 5 spectra/s. The mass scale was calibrated using the Agilent positive ion tune mix, over the m/z range 300-3200. The instrument control software was Agilent MassHunter Workstation Data Acquisition (vB.05.01).
Mass Spectrometry Data Processing and Informatics: All data processing was performed using a HP Z620, 64-bit, 12-processor, Windows 7 PC, using a combination of Agilent MassHunter Qualitative Analysis (B.05.00) Agilent RapidFire control software (v4.0.12333.14070) and the Agilent DA Reprocessor Offline Utilities B.05.00, Build 162. The SPE-MS data acquired from the RapidFire-MS system is typically a single SPE-MS data file composed of multiple injection events. For effective charge state extraction, SPE-peak integration and subsequent MS-spectral deconvolution, the single SPE-MS data file is split into single injection events. This is typically performed off-line and achieved through the RapidFire User Interface software, using the Agilent RapidFire control software (v4.0.12333.14070) using the Convert MS Data option. Once the individual injection-event MS-data files have been produced, they are all batch processed using the DA Reprocessor Offline Utilities (B.05.00, Build 162, Agilent). For batch processing a method file was created using Agilent MassHunter Qualitative Analysis B.05.00. The details of this method file are contained within the BioConfirm Workflow and are as follows: Integrate (MS), Integrator Selection: General, smooth option selected; detector point sampling 1; start threshold 5.0; stop threshold 0.0; filtering 5 point; peak location, top. Extract (MS): Peak Spectrum Extraction (MS) within m/z 800-1400. Deconvolute (MS) Maximum Entropy: mass range 19,000-21,000 Daltons; Mass step 1.0 Da; S/N threshold 20.0; Use limited m/z range 800-1400; adduct proton; isotope peak width automatic; minimum consecutive charge states 5. […]

[4] = 5 min compound pre-incubation, read-out: GDP KRAS G12C 5 min Coupled Exchange IC50 IP
[5] = 20 h compound pre-incubation, read-out: GDP KRAS G12C 20 h Coupled Exchange IC50 IP

Structure (SMILES)	IC50 [1]	IC50 [2]	IC50 [3, 4]	IC50 [3, 5]	GDP-KRAS G12D RF-MS 100 μM 20 h Relative % Bound (GDP-KRAS G12D)
Cc1ccnc(C(C)C)c1-n1c(=O)nc(N2CCN(C(=O)C=O)C[C@@H]2C)c2cc(Cl)c(-c3ccccc3F)nc21 [Example 4, (S)-2-(4-(6-chloro-7-(2-fluorophenyl)-1-(2-isopropyl-4-methylpyridin-3-yl)-2-oxo-1,2-dihydropyrido[2,3-d]pyrimidin-4-yl)-3-methylpiperazin-1-yl)-2-oxoacetaldehyde]	711 nM	–	–	–	–
COC(=O)/C=C/C(=O)N1CCN(c2nc(=O)n(-c3c(C)ccnc3C(C)C)c3nc(-c4ccccc4F)c(Cl)cc23)[C@@H](C)C1 [Example 5, Methyl (S,E)-4-(4-(6-chloro-7-(2-fluorophenyl)-1-(2-isopropyl-4-methylpyridin-3-yl)-2-oxo-1,2-dihydropyrido[2,3-d]pyrimidin-4-yl)-3-methylpiperazin-1-yl)-4-oxobut-2-enoate]	61 nM	> 250000 nM	95 nM	26 nM	–
CCOC(=O)[C@@H]1O[C@H]1C(=O)N1CCN(c2nc(=O)n(-c3c(C)ccnc3C(C)C)c3nc(-c4ccccc4F)c(Cl)cc23)[C@@H](C)C1 [Example 19, Ethyl (2R,3R)-3-((S)-4-(6-chloro-7-(2-fluorophenyl)-1-(2-isopropyl-4-methylpyridin-3-yl)-2-oxo-1,2-dihydropyrido[2,3-d]pyrimidin-4-yl)-3-methylpiperazine-1-carbonyl)oxirane-2-carboxylate]	96 nM	> 250000 nM	216 nM	5 nM	3.4%
